Source: publication PMC6273621, “Synthesis and the Biological Activity of Phosphonylated 1,2,3-Triazolenaphthalimide Conjugates” (Molecules, 2016)

Assays:
[1] = system: human T-lymphocyte (CEM) cells; experiment: Cytostatic activity, CEM cell proliferation; format: cell-based; details: CCRF-CEM, 72 h, read-out: IC50 CEM
Description: (§1) All assays were performed in 96-well microtiter plates. To each well were added (5–7.5) × 10^4 tumor cells and a given amount of the test compound. The cells were allowed to proliferate for 48 h (murine leukemia L1210 cells) or 72 h (human lymphocytic CEM and human cervix carcinoma HeLa cells) at 37 °C in a humidified CO2-controlled atmosphere. At the end of the incubation period, the cells were counted in a Coulter counter.

[2] = system: TK− VZV strain; experiment: microbe, parasite or virus in culture; format: cell-based, varicella-zoster virus (VZV) strain 07−1; details: Human alphaherpesvirus 3, HEL, read-out: Antiviral Activity EC50, TK− VZV Strain, HEL cell cultures; concentration reducing virus plaque formation by 50%
[3] = system: murine leukemia (L1210) cells; experiment: Cytostatic activity, L1210 cell proliferation; format: cell-based; details: Mus musculus, L1210, 48 h, read-out: IC50 L1210
Description: as §1

[4] = system: TK+ VZV strain; experiment: microbe, parasite or virus in culture; format: cell-based, varicella-zoster virus (VZV) strain Oka; details: Human alphaherpesvirus 3, HEL, read-out: Antiviral Activity EC50, TK+ VZV Strain, HEL cell cultures; concentration reducing virus plaque formation by 50%
[5] = system: human dermal microvascular endothelial HMEC-1 cells; experiment: Cytostatic activity, HMEC-1 cell proliferation; format: cell-based; details: HMEC-1, read-out: IC50 HMEC-1
[6] = system: HEL cells; experiment: Cytotoxicity, cell morphology (MCC) in HEL cells; format: cell-based, human; details: minimum cytotoxic concentration causing microscopically detectable alteration of cell morphology
From the text: The cytotoxicity of the tested compounds toward the uninfected host cells was defined as the minimum cytotoxic concentration (MCC) that causes a microscopically detectable alteration of normal cell morphology.

[7] = system: human cervix carcinoma cells (HeLa); experiment: Cytostatic activity, HeLa cell proliferation; format: cell-based; details: 72 h, read-out: IC50 HeLa
Description: as §1

[8] = Cytotoxicity, cell growth (CC50) in HEL cells; format: cell-based; details: human, HEL cells (uninfected), concentration reducing cell growth by 50%

SMILES | IC50 [1] | EC50 [2] | melting point | IC50 [3] | EC50 [4] | IC50 [5] | Cytotoxicity, Cell Morphology (MCC) [6] | IC50 [7] | CC50 [8]
CCOP(=O)(CCCn1cc(CN2C(=O)c3cccc4cccc(c34)C2=O)nn1)OCC [Compound 14c, Diethyl 3-{4-[(1,3-Dioxo-1H-benzo[de]isoquinolin-2(3H)-yl)methyl]-1H-1,2,3-triazol-1-yl}propylphosphonate] | 124 ± 19 µM | 64.5 µM | 131 to 132 °C | ≥ 250 µM | > 100 µM | ≥ 250 µM | >100 μM | 172 ± 20 µM | –
CCOP(=O)(COCCn1cc(CN2C(=O)c3cccc4cc([N+](=O)[O-])cc(c34)C2=O)nn1)OCC [Compound 16g, Diethyl 2-{4-[(5-Nitro-1,3-dioxo-1H-benzo[de]isoquinolin-2(3H)-yl)methyl]-1H-1,2,3-triazol-1-yl}ethoxy-methylphosphonate] | 79 ± 4 µM | > 100 µM | 89 to 90 °C | 71 ± 1 µM | 50.2 µM | 148 ± 3 µM | >100 μM | 76 ± 8 µM | –
Nc1nc2c(ncn2COCCO)c(=O)[nH]1 [Acyclovir] | – | – | – | – | – | – | – | – | > 440 µM
CCOP(=O)(CCCn1cc(CN2C(=O)c3cccc4cc([N+](=O)[O-])cc(c34)C2=O)nn1)OCC [Compound 16c, Diethyl 3-{4-[(5-Nitro-1,3-dioxo-1H-benzo[de]isoquinolin-2(3H)-yl)methyl]-1H-1,2,3-triazol-1-yl}propylphosphonate] | 55 ± 23 µM | 47.8 µM | 113 to 114 °C | 34 ± 9 µM | 32.8 µM | 136 ± 22 µM | >100 μM | 29 ± 17 µM | –
CCOP(=O)(OCC)C(O)Cn1cc(CN2C(=O)c3cccc4cc([N+](=O)[O-])cc(c34)C2=O)nn1 (stereo not drawn) [Compound 16e, Diethyl 2-{4-[(5-Nitro-1,3-dioxo-1H-benzo[de]isoquinolin-2(3H)-yl)methyl]-1H-1,2,3-triazol-1-yl}-1-hydroxyethylphosphonate] | 127 ± 14 µM | > 100 µM | 212 to 213 °C | 111 ± 39 µM | 83.6 µM | > 250 µM | >100 μM | 132 ± 2 µM | –
CCOP(=O)(CCCCn1cc(CN2C(=O)c3cccc4cccc(c34)C2=O)nn1)OCC [Compound 14d, Diethyl 4-{4-[(1,3-Dioxo-1H-benzo[de]isoquinolin-2(3H)-yl)methyl]-1H-1,2,3-triazol-1-yl}butylphosphonate] | 119 ± 3 µM | 56.7 µM | 131 to 132 °C | 156 ± 40 µM | 86.4 µM | 180 ± 54 µM | >100 μM | 150 ± 11 µM | –
CCOP(=O)(CCCCn1cc(CN2C(=O)c3cccc4c(Br)ccc(c34)C2=O)nn1)OCC [Compound 15d, Diethyl 4-{4-[(6-Bromo-1,3-dioxo-1H-benzo[de]isoquinolin-2(3H)-yl)methyl]-1H-1,2,3-triazol-1-yl}butylphosphonate] | 22 µM | 37.5 µM | – | 17 ± 3 µM | 40.4 µM | 92 ± 43 µM | 100 μM | 55 ± 2 µM | –
CCOP(=O)(CC(O)Cn1cc(CN2C(=O)c3cccc4c(Br)ccc(c34)C2=O)nn1)OCC (stereo not drawn) [Compound 15f, Diethyl 3-{4-[(6-Bromo-1,3-dioxo-1H-benzo[de]isoquinolin-2(3H)-yl)methyl]-1H-1,2,3-triazol-1-yl}-2-hydroxypropylphosphonate] | 60 ± 13 µM | > 100 µM | 152 to 153 °C | 23 ± 3 µM | 86.4 µM | 152 ± 1 µM | >100 μM | 87 ± 21 µM | –
CCOP(=O)(CCOCCn1cc(CN2C(=O)c3cccc4cc([N+](=O)[O-])cc(c34)C2=O)nn1)OCC [Compound 16h, Diethyl 2-(2-{4-[(5-Nitro-1,3-dioxo-1H-benzo[de]isoquinolin-2(3H)-yl)methyl]-1H-1,2,3-triazol-1-yl}ethoxy)ethylphosphonate] | 66 µM | 64.5 µM | – | 64 ± 11 µM | 40.9 µM | 152 ± 1 µM | >100 μM | 56 ± 16 µM | –
